# Measurements taken from ChEMBL document CHEMBL2062419, “Synthesis and antiviral activities of hexadecyloxypropyl prodrugs of acyclic nucleoside phosphonates containing guanine or hypoxanthine and a (S)-HPMP or PEE acyclic moiety” (Eur J Med Chem, 2012).
# Active and inactive are the calls of the source. The calls are words filed in the database; no cut-off is given here.
# Key:
# [1] = Cytotoxicity against HEL cells assessed as effect on cell morphology incubated for 3 days by microscopy; type: cell-based; details: human
# [2] = system: Human alphaherpesvirus 1; assay: Antiviral activity against thymidine kinase negative and ACV resistant HSV1 KOS infected in HEL cells by viral CPE assay; type: functional, organism-based; details: Human alphaherpesvirus 1, KOS
# [3] = system: Human alphaherpesvirus 2; assay: Antiviral activity against HSV2 G infected in HEL cells by viral CPE assay; type: functional, organism-based; details: Human alphaherpesvirus 2, strain G
# [4] = system: Vaccinia virus; assay: Antiviral activity against Vaccinia virus Lederie infected in HEL cells by viral CPE assay; type: functional, organism-based; details: Orthopoxvirus vaccinia
# [5] = system: HEL; assay: Cytotoxicity against HEL cells assessed as effect on cell growth incubated for 3 days by Coulter counter assay; type: cell-based; details: human, 72 h
# [6] = system: Human alphaherpesvirus 1; assay: Antiviral activity against HSV1 KOS infected in HEL cells by viral CPE assay; type: functional, organism-based; details: Human alphaherpesvirus 1, KOS
# [7] = system: Human betaherpesvirus 5; assay: Antiviral activity against HCMV Davis infected in HEL cells by viral CPE assay; type: functional, organism-based; details: Human betaherpesvirus 5, Davis
# [8] = system: Human alphaherpesvirus 3; assay: Antiviral activity against thymidine kinase negative VZV 07/01 infected in HEL cells by plaque formation assay; type: functional, organism-based; details: Human alphaherpesvirus 3, 07/01, HEL
# [9] = system: Felid alphaherpesvirus 1; assay: Antiviral activity against Feline herpesvirus infected in CRFK cells by viral CPE assay; type: functional, organism-based; details: Felid alphaherpesvirus 1, CRFK
# [10] = system: Punta Toro virus; assay: Antiviral activity against Punta Toro virus by viral CPE assay; type: functional, organism-based
# [11] = system: Mammalian orthoreovirus 1; assay: Antiviral activity against Reovirus 1 by viral CPE assay; type: functional, organism-based
# [12] = system: Human betaherpesvirus 5; assay: Antiviral activity against HCMV AD169 infected in HEL cells by viral CPE assay; type: functional, organism-based; details: Human betaherpesvirus 5, AD169, HEL
# [13] = system: Human respirovirus 3; assay: Antiviral activity against Human parainfluenza virus 3 by viral CPE assay; type: functional, organism-based
# [14] = system: Respiratory syncytial virus; assay: Antiviral activity against Respiratory syncytial virus Long by viral CPE assay; type: functional, organism-based
# [15] = system: Human alphaherpesvirus 3; assay: Antiviral activity against thymidine kinase positive VZV OKa infected in HEL cells by plaque formation assay; type: functional, cell-based, Human herpesvirus 3 strain Oka vaccine; details: Human alphaherpesvirus 3, OKa
# [16] = system: Human immunodeficiency virus 1; assay: Antiviral activity against HIV1 3B infected in human CEM cells assessed as reduction in virus-induced CEM giant cell formation incubated for 4 days at 37 degC by microscopy; type: functional, organism-based; details: CCRF-CEM
# [17] = system: Human immunodeficiency virus 2; assay: Antiviral activity against HIV2 ROD infected in human CEM cells assessed as reduction in virus-induced CEM giant cell formation incubated for 4 days at 37 degC by microscopy; type: functional, organism-based; details: ISOLATE ROD, CCRF-CEM
# [18] = system: Vesicular stomatitis virus; assay: Antiviral activity against VSV by viral CPE assay; type: functional, organism-based
# [19] = system: Coxsackievirus B4; assay: Antiviral activity against Human coxsackievirus B4 by viral CPE assay; type: functional, organism-based
# [20] = system: Sindbis virus; assay: Antiviral activity against Sindbis virus by viral CPE assay; type: functional, organism-based
# [21] = Selectivity index, ratio of cytotoxic CC50 for HEL cells to EC50 for HCMV Davis
# [22] = Selectivity index, ratio of cytotoxic CC50 for HEL cells to EC50 for HCMV AD169
# [23] = Selectivity index, ratio of cytotoxic CC50 for HEL cells to EC50 for Vaccinia virus Lederie; type: toxicity, cell-based; details: human, read-out: Ratio CC50/EC50
# [24] = Selectivity index, ratio of cytotoxic CC50 for HEL cells to EC50 for HSV2 G
# [25] = Selectivity index, ratio of cytotoxic CC50 for HEL cells to EC50 for HSV1 KOS
# [26] = Selectivity index, ratio of cytotoxic CC50 for HEL cells to EC50 for ACV resistant HSV1 KOS
# [27] = system: Human alphaherpesvirus 3; assay: Antiviral activity against thymidine kinase positive VZV YS infected in HEL cells by plaque formation assay; type: functional, organism-based; details: Human alphaherpesvirus 3, YS
# [28] = Selectivity index, ratio of cytotoxic CC50 for HEL cells to EC50 for VZV YS
# [29] = Selectivity index, ratio of cytotoxic CC50 for HEL cells to EC50 for VZV 07/01
# [30] = Selectivity index, ratio of cytotoxic CC50 for HEL cells to EC50 for VZV Oka
# [31] = Selectivity index, ratio of cytotoxic CC50 for HEL cells to EC50 for Feline herpesvirus; type: toxicity, cell-based; details: human, read-out: Ratio CC50/EC50
# [32] = system: Human alphaherpesvirus 3; assay: Antiviral activity against thymidine kinase negative VZV YS/R infected in HEL cells by plaque formation assay; type: functional, organism-based; details: Human alphaherpesvirus 3, YS/R
SMILES,MCC at 72 h [1] [µM],EC50 [2] [µM],EC50 [3] [µM],EC50 [4] [µM],CC50 [5] [µM],EC50 [6] [µM],EC50 [7] [µM],EC50 [8] [µM],EC50 [9] [µM],Activity [10],Activity [11],EC50 [12] [µM],Activity [13],Activity [14],EC50 [15] [µM],Activity [16],Activity [17],Activity [18],Activity [19],Activity [20],further results
Nc1nc2c(ncn2COCCO)c(=O)[nH]1 [ACYCLOVIR],> 444,≥ 212,0.38,> 1000,918,0.53,,,,,,,,,,,,,,,
CCCCCCCCCCCCCCCCOCCCOP(=O)(CCOCCn1cnc2c(=O)[nH]cnc21)OCCCOCCCCCCCCCCCCCCCC,≥ 117,> 117,> 117,> 117,117,> 117,> 23.4,> 23.4,> 23.4,inactive,inactive,> 23.4,inactive,inactive,> 23.4,inactive,inactive,inactive,inactive,inactive,
Nc1nc(O)c2ncn(COC(CO)CO)c2n1 [GANCICLOVIR],> 394,,0.029,≥ 93,231,,,,1.15,,,,,,,,,,,,
CCCCCCCCCCCCCCCCOCCCOP(=O)(O)CCOCCn1cnc2c(=O)[nH]c(N)nc21,≥ 34,2.8,1.9,≥ 34,26,1.37,0.06,0.3,> 171,inactive,inactive,0.13,inactive,inactive,0.14,inactive,inactive,inactive,inactive,inactive,Ratio CC50/EC50 [21]: 433; Ratio CC50/EC50 [22]: 200; selectivity ratio [23]: < 1; Ratio CC50/EC50 [24]: 14; Ratio CC50/EC50 [25]: 19; Ratio CC50/EC50 [26]: 9; EC50 [27]: 0.19 µM; Ratio CC50/EC50 [28]: 137; Ratio CC50/EC50 [29]: 87; Ratio CC50/EC50 [30]: 186
Nc1nc2c(ncn2C[C@@H](CO)OCP(=O)(O)O)c(=O)[nH]1,> 100,0.78,0.78,1.1,39,0.78,1.5,0.21,0.72,,,1.8,,,0.56,,,,,,selectivity ratio [31]: 157; Ratio CC50/EC50 [21]: 26; Ratio CC50/EC50 [22]: 22; selectivity ratio [23]: 35; Ratio CC50/EC50 [24]: 50; Ratio CC50/EC50 [25]: 50; Ratio CC50/EC50 [26]: 50; Ratio CC50/EC50 [29]: 186; Ratio CC50/EC50 [30]: 70
O=c1[nH]c(=O)n([C@H]2C[C@H](O)[C@@H](CO)O2)cc1/C=C/Br [BRIVUDINE],> 300,≥ 183,105,,347,0.038,,53,,,,,,,,,,,,,EC50 [32]: ≥ 120 µM; EC50 [27]: 0.006 µM
CCCCCCCCCCCCCCCCOCCCOP1(=O)CO[C@@H](Cn2cnc3c(=O)[nH]cnc32)CO1 (mixture of isomers),≥ 7,> 7,> 7,> 7,> 176,> 7,> 7,> 1.4,> 176,inactive,inactive,> 7,inactive,inactive,> 1.4,inactive,inactive,inactive,inactive,inactive,
Nc1ccn(C[C@@H](CO)OCP(=O)(O)O)c(=O)n1 [CIDOFOVIR],> 317,1.75,,14,241,0.93,,,,,,1.37,,,,,,,,,
CCCCCCCCCCCCCCCCOCCCOP(=O)(O)CO[C@H](CO)Cn1cnc2c(=O)[nH]c(N)nc21,≥ 1.3,0.012,0.007,0.011,0.72,0.008,0.0022,0.0017,> 1.33,inactive,inactive,0.0066,inactive,inactive,0.002,inactive,inactive,inactive,inactive,inactive,Ratio CC50/EC50 [21]: 327; Ratio CC50/EC50 [22]: 109; selectivity ratio [23]: 65; Ratio CC50/EC50 [24]: 103; Ratio CC50/EC50 [25]: 90; Ratio CC50/EC50 [26]: 60; EC50 [27]: 0.0025 µM; Ratio CC50/EC50 [28]: 288; Ratio CC50/EC50 [29]: 423; Ratio CC50/EC50 [30]: 360
CCCCCCCCCCCCCCCCOCCCOP(=O)(CO[C@H](CO)Cn1cnc2c(=O)[nH]cnc21)OCCCOCCCCCCCCCCCCCCCC,≥ 23,> 115,> 115,> 115,> 115,> 115,> 23,> 4.6,> 115,inactive,inactive,> 23,inactive,inactive,> 23,inactive,inactive,inactive,inactive,inactive,
CCCCCCCCCCCCCCCCOCCCOP(=O)(O)CO[C@H](CO)Cn1cnc2c(=O)[nH]cnc21,≥ 34,> 6.8,> 6.8,> 6.8,66,> 6.8,15.2,,> 34,inactive,inactive,> 34,inactive,inactive,> 6.8,inactive,inactive,inactive,inactive,inactive,
CCCCCCCCCCCCCCCCOCCCOP(=O)(CCOCCn1cnc2c(=O)[nH]c(N)nc21)OCCCOCCCCCCCCCCCCCCCC,≥ 23,> 115,> 115,> 115,> 115,> 115,> 23,> 23,> 115,inactive,inactive,> 23,inactive,inactive,> 23,inactive,inactive,inactive,inactive,inactive,
CCCCCCCCCCCCCCCCOCCCOP(=O)(O)CCOCCn1cnc2c(=O)[nH]cnc21,175,> 35,> 35,> 35,78,> 35,> 35,> 35,> 35,inactive,inactive,> 35,inactive,inactive,> 35,inactive,inactive,inactive,inactive,inactive,
